Experimental data: patent US20240270762A1, “PENICILLIN-BINDING PROTEIN INHIBITORS” (priority 2021, published 2024)
Converted amounts (≈) assume the structure as drawn. Where two headings read alike, the source gives them in different places.

Experiments:
[1] = target: T1, PBP1a from Acinetobacter baumannii (ATCC 19606) (Acinetobacter baumannii, UniProt A0ABX6CK30); experiment: Bocillin-FL fluorescence polarization competition binding, A. baumannii PBP1a; conditions: fluorescence polarization competition binding assay using Bocillin-FL; read-out: A. baumannii PBP1a Potency
T1 sequence (A0ABX6CK30 1-851): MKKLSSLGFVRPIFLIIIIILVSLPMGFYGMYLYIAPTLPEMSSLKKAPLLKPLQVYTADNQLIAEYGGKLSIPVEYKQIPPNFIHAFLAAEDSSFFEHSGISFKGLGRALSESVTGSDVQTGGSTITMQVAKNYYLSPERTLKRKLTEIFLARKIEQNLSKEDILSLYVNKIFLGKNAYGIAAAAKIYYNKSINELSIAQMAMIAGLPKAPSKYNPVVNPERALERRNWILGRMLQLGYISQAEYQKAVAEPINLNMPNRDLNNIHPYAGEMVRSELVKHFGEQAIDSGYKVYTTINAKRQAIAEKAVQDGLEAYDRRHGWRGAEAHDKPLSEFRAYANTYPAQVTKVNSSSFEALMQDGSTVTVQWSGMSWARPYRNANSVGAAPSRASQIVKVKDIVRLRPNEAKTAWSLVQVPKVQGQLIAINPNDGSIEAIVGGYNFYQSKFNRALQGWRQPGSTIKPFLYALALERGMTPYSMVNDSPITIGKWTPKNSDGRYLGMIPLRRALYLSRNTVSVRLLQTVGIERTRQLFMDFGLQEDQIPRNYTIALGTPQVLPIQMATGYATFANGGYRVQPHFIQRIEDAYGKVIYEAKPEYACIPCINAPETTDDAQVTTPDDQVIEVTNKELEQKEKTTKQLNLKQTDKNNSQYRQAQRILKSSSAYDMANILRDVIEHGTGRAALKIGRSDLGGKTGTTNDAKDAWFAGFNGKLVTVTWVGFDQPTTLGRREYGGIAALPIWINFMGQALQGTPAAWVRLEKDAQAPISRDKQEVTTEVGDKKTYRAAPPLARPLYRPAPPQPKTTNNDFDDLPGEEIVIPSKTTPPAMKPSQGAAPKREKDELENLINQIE
Outline: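 Purified PBP was preincubated with inhibitor (E. coli PBP3 1.5 μM, 30 min; P. aeruginosa PBP3 0.75 μM, A. baumannii PBP3 0.2 μM and PBP1a 1 μM, 15 min), then Bocillin-FL (0.1 μM; 0.05 μM for PBP1a) added and FP read up to 60 min. EC50 = 50% loss of bound probe.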

A. baumannii ATCC 19606 = experiment: microbe, parasite or virus in culture; type: cell-based; conditions: Acinetobacter baumannii, ATCC19606, read-out: MIC, A. baumannii ATCC 19606
A. baumannii 1258916 = experiment: microbe, parasite or virus in culture; type: cell-based, Acinetobacter baumannii; conditions: Acinetobacter baumannii, 1258916, read-out: MIC, A. baumannii 1258916
A. baumannii CDC-0033 = experiment: microbe, parasite or virus in culture; type: cell-based; conditions: Acinetobacter baumannii, CDC0033, read-out: MIC, A. baumannii CDC-0033
A. baumannii CDC-0083 = experiment: microbe, parasite or virus in culture; type: cell-based; conditions: Acinetobacter baumannii, CDC0083, read-out: MIC, A. baumannii CDC-0083
N. gonorrhoeae WHO M = experiment: Liquid broth MIC in Fastidious broth; conditions: Neisseria gonorrhoeae
N. gonorrhoeae WHO X = experiment: Liquid broth MIC in Fastidious broth; conditions: Neisseria gonorrhoeae
N. gonorrhoeae CDC-0197 = experiment: Liquid broth MIC in Fastidious broth; conditions: Neisseria gonorrhoeae
[2] = read-out: Minimum Inhibitory Concentration (MIC), N. gonorrhoeae WHO M
[3] = read-out: Minimum Inhibitory Concentration (MIC), N. gonorrhoeae WHO X
[4] = CDC0197, read-out: Minimum Inhibitory Concentration (MIC), N. gonorrhoeae CDC-0197
[5] = read-out: Minimum Inhibitory Concentration, WHO M
[6] = read-out: Minimum Inhibitory Concentration, WHO X
[7] = CDC0197, read-out: Minimum Inhibitory Concentration, CDC-0197

| SMILES | IC50 [1] [µM] | MIC (A. baumannii ATCC 19606) [µg/mL] | MIC (A. baumannii 1258916) [µg/mL] | MIC (A. baumannii CDC-0033) [µg/mL] | MIC (A. baumannii CDC-0083) [µg/mL] | MIC (N. gonorrhoeae WHO M; [2]) [µg/mL] | MIC (N. gonorrhoeae WHO X; [3]) [µg/mL] | MIC (N. gonorrhoeae CDC-0197; [4]) [µg/mL] | MIC (N. gonorrhoeae WHO M; [5]) [µg/mL] | MIC (N. gonorrhoeae WHO X; [6]) [µg/mL] | MIC (N. gonorrhoeae CDC-0197; [7]) [µg/mL] |
| --- | --- | --- | --- | --- | --- | --- | --- | --- | --- | --- | --- |
| O=C(NCCCN1CCN(C(=O)NC(C(=O)N[C@H]2Cc3ccc(F)c(C(=O)O)c3OB2O)c2cc(F)c(O)c(O)c2Cl)C(=O)C1=O)c1nccs1 (stereo partly drawn) [Example 211, (3R)-3-(2-(2-chloro-5-fluoro-3,4-dihydroxyphenyl)-2-(2,3-dioxo-4-(3-(thiazole-2-carboxamido)propyl)piperazine-1-carboxamido)acetamido)-7-fluoro-2-hydroxy-3,4-dihydro-2H-benzo[e][1,2]oxaborinine-8-carboxylic acid] | > 250 | < 1 | < 1 | 2 to 4 (≈ 2.66 to 5.33 µM) | < 1 | 16 to 32 (≈ 21.3 to 42.6 µM) | > 64 | 16 to 32 (≈ 21.3 to 42.6 µM) | – | – | – |
| O=C(NCCS(=O)(=O)N1CCN(C(=O)N[C@H](C(=O)N[C@H]2Cc3ccc(F)c(C(=O)O)c3OB2O)c2cc(F)c(O)c(O)c2Cl)C1=O)c1nccs1 [Example 263, (R)-3-((S)-2-(2-chloro-5-fluoro-3,4-dihydroxyphenyl)-2-(2-oxo-3-((2-(thiazole-2-carboxamido)ethyl)sulfonyl)imidazolidine-1-carboxamido)acetamido)-7-fluoro-2-hydroxy-3,4-dihydro-2H-benzo[e][1,2]oxaborinine-8-carboxylic acid] | > 250 | 8 to 16 (≈ 10.4 to 20.7 µM) | 32 to 64 (≈ 41.4 to 82.8 µM) | 32 to 64 (≈ 41.4 to 82.8 µM) | 2 to 4 (≈ 2.59 to 5.18 µM) | – | – | – | > 64 | > 64 | > 64 |
| O=C(NCCCN1CCN(C(=O)NC(C(=O)N[C@H]2Cc3ccc(F)c(C(=O)O)c3OB2O)c2cc(F)c(O)c(O)c2Cl)C1=O)c1ccncc1 (stereo partly drawn) [Example 256, (3R)-3-(2-(2-chloro-5-fluoro-3,4-dihydroxyphenyl)-2-(3-(3-(isonicotinamido)propyl)-2-oxoimidazolidine-1-carboxamido)acetamido)-7-fluoro-2-hydroxy-3,4-dihydro-2H-benzo[e][1,2]oxaborinine-8-carboxylic acid] | > 250 | < 1 | < 1 | 2 to 4 (≈ 2.79 to 5.58 µM) | < 1 | – | – | – | 16 to 32 (≈ 22.3 to 44.6 µM) | > 64 | > 64 |
| O=C(NCCN1CCN(C(=O)NC(C(=O)N[C@H]2Cc3ccc(F)c(C(=O)O)c3OB2O)c2cc(F)c(O)c(O)c2Cl)C(=O)C1=O)c1ccncc1 (stereo partly drawn) [Example 216, (3R)-3-(2-(2-chloro-5-fluoro-3,4-dihydroxyphenyl)-2-(4-(2-(isonicotinamido)ethyl)-2,3-dioxopiperazine-1-carboxamido)acetamido)-7-fluoro-2-hydroxy-3,4-dihydro-2H-benzo[e][1,2]oxaborinine-8-carboxylic acid] | > 250 | < 1 | 2 to 4 (≈ 2.74 to 5.47 µM) | 8 to 16 (≈ 10.9 to 21.9 µM) | > 128 | 4 to 8 (≈ 5.47 to 10.9 µM) | > 64 | 16 to 32 (≈ 21.9 to 43.8 µM) | – | – | – |
| O=C(O)c1cccc2c1OB(O)[C@@H](NC(=O)[C@@H](NC(=O)c1cnc3n(c1=O)CCS3)c1ccc(P(=O)(O)O)cc1)C2 (single isomer, unassigned) [Example 196] | – | – | – | – | – | 16 to 32 (≈ 26.7 to 53.3 µM) | 16 to 32 (≈ 26.7 to 53.3 µM) | 16 to 32 (≈ 26.7 to 53.3 µM) | – | – | – |
| CN(CCN1CCN(C(=O)N[C@@H](C(=O)N[C@H]2Cc3ccc(F)c(C(=O)O)c3OB2O)c2cc(F)c(O)c(O)c2Cl)C(=O)C1=O)Cc1cncc(O)c1 [Example 208, (R)-3-((R)-2-(2-chloro-5-fluoro-3,4-dihydroxyphenyl)-2-(4-(2-(((5-hydroxypyridin-3-yl)methyl)(methyl)amino)ethyl)-2,3-dioxopiperazine-1-carboxamido)acetamido)-7-fluoro-2-hydroxy-3,4-dihydro-2H-benzo[e][1,2]oxaborinine-8-carboxylic acid] | – | < 1 | < 1 | 2 to 4 (≈ 2.68 to 5.36 µM) | < 1 | 4 to 8 (≈ 5.36 to 10.7 µM) | > 64 | 16 to 32 (≈ 21.4 to 42.8 µM) | – | – | – |
| O=C(CN1CCN(C(=O)NC(C(=O)N[C@H]2Cc3ccc(F)c(C(=O)O)c3OB2O)c2cc(F)c(O)c(O)c2Cl)C(=O)C1=O)NCc1ccc(O)cc1 (stereo partly drawn) [Example 236, (3R)-3-(2-(2-chloro-5-fluoro-3,4-dihydroxyphenyl)-2-(4-(2-((4-hydroxybenzyl)amino)-2-oxoethyl)-2,3-dioxopiperazine-1-carboxamido)acetamido)-7-fluoro-2-hydroxy-3,4-dihydro-2H-benzo[e][1,2]oxaborinine-8-carboxylic acid] | > 250 | < 1 | 2 to 4 (≈ 2.68 to 5.36 µM) | 8 to 16 (≈ 10.7 to 21.5 µM) | > 128 | – | – | – | – | – | – |
| O=C(NCCCN1CCN(C(=O)NC(C(=O)N[C@H]2Cc3ccc(F)c(C(=O)O)c3OB2O)c2cc(F)c(O)c(O)c2Cl)C(=O)C1=O)c1cccc(O)c1 (stereo partly drawn) [Example 204, (3R)-3-(2-(2-chloro-5-fluoro-3,4-dihydroxyphenyl)-2-(4-(3-(3-hydroxybenzamido)propyl)-2,3-dioxopiperazine-1-carboxamido)acetamido)-7-fluoro-2-hydroxy-3,4-dihydro-2H-benzo[e][1,2]oxaborinine-8-carboxylic acid] | – | < 1 | < 1 | 2 to 4 (≈ 2.63 to 5.26 µM) | < 1 | 4 to 8 (≈ 5.26 to 10.5 µM) | > 64 | 16 to 32 (≈ 21.1 to 42.1 µM) | – | – | – |
| CCN1CCN(C(=O)NC(C(=O)N[C@H]2Cc3cccc(C(=O)O)c3OB2O)c2ccc(P(=O)(O)O)c(F)c2O)C(=O)C1=O (stereo partly drawn) [Example 198, (3R)-3-(2-(4-ethyl-2,3-dioxopiperazine-1-carboxamido)-2-(3-fluoro-2-hydroxy-4-phosphonophenyl)acetamido)-2-hydroxy-3,4-dihydro-2H-benzo[e][1,2]oxaborinine-8-carboxylic acid] | – | – | – | – | – | < 1 | 4 to 8 (≈ 6.43 to 12.9 µM) | < 1 | – | – | – |
| O=C(O)c1cccc2c1OB(O)[C@@H](NC(=O)[C@H](NC(=O)c1cnc3n(c1=O)CCS3)c1ccc(P(=O)(O)O)cc1)C2 (single isomer, unassigned) [Example 197] | – | – | – | – | – | 4 to 8 (≈ 6.66 to 13.3 µM) | 16 to 32 (≈ 26.7 to 53.3 µM) | 16 to 32 (≈ 26.7 to 53.3 µM) | – | – | – |
| O=C(NCCN1CCN(C(=O)NC(C(=O)N[C@H]2Cc3ccc(F)c(C(=O)O)c3OB2O)c2cc(F)c(O)c(O)c2Cl)C1=O)Nc1cccc(O)c1 (stereo partly drawn) [Example 249, (3R)-3-(2-(2-chloro-5-fluoro-3,4-dihydroxyphenyl)-2-(3-(2-(3-(3-hydroxyphenyl)ureido)ethyl)-2-oxoimidazolidine-1-carboxamido)acetamido)-7-fluoro-2-hydroxy-3,4-dihydro-2H-benzo[e][1,2]oxaborinine-8-carboxylic acid] | – | < 1 | < 1 | 2 to 4 (≈ 2.73 to 5.46 µM) | < 1 | – | – | – | 16 to 32 (≈ 21.8 to 43.7 µM) | > 64 | > 64 |
